# Target: T1, panel of 442 kinases (Homo sapiens, UniProt O00329)
# T1 construct: purchased KINOMEscan
# T1 sequence (O00329 1-1044): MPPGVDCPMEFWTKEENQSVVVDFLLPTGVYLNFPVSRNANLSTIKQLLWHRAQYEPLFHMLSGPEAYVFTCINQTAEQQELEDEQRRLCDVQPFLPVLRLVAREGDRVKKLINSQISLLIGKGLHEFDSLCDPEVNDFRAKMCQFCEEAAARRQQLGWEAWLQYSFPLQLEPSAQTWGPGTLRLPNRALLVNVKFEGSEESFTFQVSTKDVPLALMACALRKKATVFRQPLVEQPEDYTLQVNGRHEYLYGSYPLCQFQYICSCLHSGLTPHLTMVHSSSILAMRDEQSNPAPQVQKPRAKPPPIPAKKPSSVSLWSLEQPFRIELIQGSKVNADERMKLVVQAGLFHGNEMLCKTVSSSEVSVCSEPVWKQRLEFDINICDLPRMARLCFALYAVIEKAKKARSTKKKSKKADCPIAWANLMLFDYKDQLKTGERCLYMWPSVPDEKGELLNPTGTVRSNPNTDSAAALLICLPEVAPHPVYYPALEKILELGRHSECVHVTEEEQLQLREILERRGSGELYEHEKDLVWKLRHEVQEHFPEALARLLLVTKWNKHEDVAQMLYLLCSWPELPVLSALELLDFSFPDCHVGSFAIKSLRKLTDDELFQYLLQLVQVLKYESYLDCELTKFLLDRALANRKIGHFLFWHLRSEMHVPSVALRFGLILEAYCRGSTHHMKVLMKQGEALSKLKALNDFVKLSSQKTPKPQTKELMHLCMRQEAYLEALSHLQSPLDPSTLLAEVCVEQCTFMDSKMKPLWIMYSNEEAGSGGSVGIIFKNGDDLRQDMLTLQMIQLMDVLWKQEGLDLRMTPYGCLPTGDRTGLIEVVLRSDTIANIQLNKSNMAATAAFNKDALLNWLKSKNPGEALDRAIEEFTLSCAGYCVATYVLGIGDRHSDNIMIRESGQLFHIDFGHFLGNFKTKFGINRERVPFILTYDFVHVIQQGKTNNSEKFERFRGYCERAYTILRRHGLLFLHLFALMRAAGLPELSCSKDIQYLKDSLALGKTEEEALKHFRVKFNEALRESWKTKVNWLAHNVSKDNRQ
# Format: binding
# Settings: Compound Concentration 10 µM
# Description: We assessed the selectivity of members of this scaffold using the KINOMEscan methodology across a near comprehensive panel of 442 kinases [[18,27]].
row,SMILES,KINOMEscan: PIK3CD
1,CCOc1cc(C(=O)N2CCC(N3CCN(C)CC3)CC2)ccc1Nc1ncc2c(n1)N(C1CCCC1)c1ccccc1C(=O)N2C [Compound 26],91
2,"COc1cc(C(=O)N2CCC(N3CCN(C)CC3)CC2)ccc1Nc1ncc2c(n1)N(C1CCCC1)c1ccccc1C(=O)N2C [Compound 25, 11-cyclopentyl-2-((2-methoxy-4-(4-(4-methylpiperazin-1-yl)piperidine-1-carbonyl)phenyl)amino)-5-methyl-5H-benzo[e]pyrimido[5,4-b][1,4]diazepin-6(11H)-one]",100
3,COc1cc(C(=O)N2CCC(N3CCN(C)CC3)CC2)ccc1Nc1ncc2c(n1)N(C)c1ccccc1C(=O)N2C [15 (LRRK2-IN-1)],62
